The results in this text go back to paper PMC2651799 (Nucleic Acids Research, 2009).

For this assay, the target named is T1, RmtA (Pseudomonas aeruginosa, UniProt Q8GRA1).
T1 sequence (Q8GRA1 1-251): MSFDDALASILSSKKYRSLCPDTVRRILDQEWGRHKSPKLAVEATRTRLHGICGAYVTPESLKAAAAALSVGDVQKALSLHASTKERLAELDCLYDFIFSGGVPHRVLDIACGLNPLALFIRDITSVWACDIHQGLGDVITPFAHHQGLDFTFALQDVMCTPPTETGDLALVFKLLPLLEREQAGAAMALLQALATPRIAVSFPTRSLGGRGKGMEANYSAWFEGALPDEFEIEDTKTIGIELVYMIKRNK
The assay is classed as biochemical.

Consider `Nc1ncnc2c1ncn2[C@@H]1O[C@H](CSCC[C@H](N)C(=O)O)[C@@H](O)[C@H]1O` [SAH], for which inhibition was half-maximal at 9.33 ± 0.07 µM (IC50). Consider `Nc1ncnc2c1ncn2[C@@H]1O[C@H](C[C@@H](N)CC[C@H](N)C(=O)O)[C@@H](O)[C@H]1O` [sinefungin], for which the IC50 was 19.95 ± 0.09 µM.
